Literature values, collected in US6756374B2, “Diaminothiazoles having antiproliferative activity” (Hoffmann-La Roche Inc., priority 2001, dated 2004).

What was measured:
Settings in all cases: cited from earlier work
Cdk1 = Cdk1 (Homo sapiens, UniProt P06493)
cells = tested on: cells
PKC = tested on: PKC
Cdk2 = Cdk2 (Homo sapiens, UniProt P24941)
Cdk4 = Cdk4 (Homo sapiens, UniProt P11802)
Sequence of Cdk4 (P11802 whole entry, species assumed): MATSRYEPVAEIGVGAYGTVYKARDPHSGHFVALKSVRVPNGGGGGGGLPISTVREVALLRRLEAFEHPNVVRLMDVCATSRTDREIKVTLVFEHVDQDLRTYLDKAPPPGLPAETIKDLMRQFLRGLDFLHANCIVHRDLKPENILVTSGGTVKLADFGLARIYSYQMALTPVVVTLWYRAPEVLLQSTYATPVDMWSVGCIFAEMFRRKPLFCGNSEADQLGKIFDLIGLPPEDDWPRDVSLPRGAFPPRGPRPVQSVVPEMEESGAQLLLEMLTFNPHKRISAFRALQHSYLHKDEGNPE
Sequence of Cdk4 (P24385 whole entry partner, species assumed): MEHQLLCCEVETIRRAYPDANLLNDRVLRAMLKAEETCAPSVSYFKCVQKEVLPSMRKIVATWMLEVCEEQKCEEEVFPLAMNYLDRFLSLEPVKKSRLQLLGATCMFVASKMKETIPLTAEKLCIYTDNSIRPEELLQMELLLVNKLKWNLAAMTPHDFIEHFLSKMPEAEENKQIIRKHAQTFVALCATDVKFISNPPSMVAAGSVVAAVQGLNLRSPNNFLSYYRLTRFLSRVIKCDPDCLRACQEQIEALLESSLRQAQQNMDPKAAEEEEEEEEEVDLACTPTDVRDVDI

Sequence of Cdk1 (P06493 whole entry, species assumed): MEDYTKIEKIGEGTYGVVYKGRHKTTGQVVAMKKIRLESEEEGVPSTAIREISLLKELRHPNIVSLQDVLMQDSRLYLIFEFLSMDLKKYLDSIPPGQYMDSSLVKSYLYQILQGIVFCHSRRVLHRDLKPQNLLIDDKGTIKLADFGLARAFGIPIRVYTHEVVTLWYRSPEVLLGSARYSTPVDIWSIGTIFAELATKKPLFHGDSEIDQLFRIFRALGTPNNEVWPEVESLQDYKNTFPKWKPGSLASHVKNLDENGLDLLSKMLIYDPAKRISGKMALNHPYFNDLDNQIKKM
Sequence of Cdk1 (P14635 whole entry partner, species assumed): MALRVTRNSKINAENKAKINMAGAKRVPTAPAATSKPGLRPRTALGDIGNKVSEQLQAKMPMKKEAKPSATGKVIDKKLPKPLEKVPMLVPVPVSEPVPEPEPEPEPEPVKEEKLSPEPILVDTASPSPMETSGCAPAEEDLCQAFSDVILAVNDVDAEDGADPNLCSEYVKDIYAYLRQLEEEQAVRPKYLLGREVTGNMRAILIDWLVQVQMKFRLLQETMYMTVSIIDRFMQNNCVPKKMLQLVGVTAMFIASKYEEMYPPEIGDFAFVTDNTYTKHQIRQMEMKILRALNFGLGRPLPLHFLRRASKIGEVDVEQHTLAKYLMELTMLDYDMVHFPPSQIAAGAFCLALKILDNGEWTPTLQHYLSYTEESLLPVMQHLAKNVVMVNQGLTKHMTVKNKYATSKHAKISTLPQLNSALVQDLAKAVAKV

CN1CC[C@H](c2c(O)cc(O)c3c(=O)cc(-c4ccccc4Cl)oc23)[C@H](O)C1 [Flavopiridol]
inhibition of Cdk1 (Cdk1): inhibits | cell cycle block (cells): blocks cells in both G1 and G2 phases | inhibition of PKC (PKC): weaker inhibitor | inhibition of Cdk2 (Cdk2): inhibits | inhibition of Cdk4 (Cdk4): inhibits
